Experimental findings from patent US9139529B2, “Substituted quinoxalines as sodium channel modulators” (VERTEX PHARMACEUTICALS INCORPORATED, priority 2013, dated 2015) are described below.

The target in this test is human Nav1.8 (Homo sapiens (Human), UniProt Q9Y5Y9). Description: E-VIPR optical membrane potential assay with electrical stimulation. The test is classed as cell-based. The following applies: HEK cells expressing human Nav1.8. The source says:
Assays for Detecting and Measuring NaV Inhibition Properties of Compounds E-VIPR Optical Membrane Potential Assay Method with Electrical Stimulation
Sodium channels are voltage-dependent proteins that can be activated by inducing membrane voltage changes by applying electric fields. The electrical stimulation instrument and methods of use are described in Ion Channel Assay Methods PCT/US01/21652, herein incorporated by reference and are referred to as E-VIPR. The instrument comprises a microtiter plate handler, an optical system for exciting the coumarin dye while simultaneously recording the coumarin and oxonol emissions, a waveform generator, a current- or voltage-controlled amplifier, and a device for inserting electrodes in well. Under integrated computer control, this instrument passes user-programmed electrical stimulus protocols to cells within the wells of the microtiter plate.
24 hours before the assay on E-VIPR, HEK cells expressing human Nav1.8 were seeded in 384-well poly-lysine coated plates at 15,000-20,000 cells per well. HEK cells were grown in media (exact composition is specific to each cell type and NaV subtype) supplemented with 10% FBS (Fetal Bovine Serum, qualified; GibcoBRL #16140-071) and 1% Pen-Strep (Penicillin-Streptomycin; GibcoBRL #15140-122). Cells were grown in vented cap flasks, in 90% humidity and 5% CO2.
1) Pre-spotted compounds (in neat DMSO) into compound plates. Vehicle control (neat DMSO), the positive control (20 mM DMSO stock tetracaine, 125 μM final in assay) and test compounds were added to each well at 160× desired final concentration in neat DMSO. Final compound plate volume was 80 μL (80-fold intermediate dilution from 1 μL DMSO spot; 160-fold final dilution after transfer to cell plate). Final DMSO concentration for all wells in assay was 0.625%.
2) Prepared Hexyl Dye Solution.
3) Prepared cell plates. On the day of the assay, medium was aspirated and cells were washed three times with 100 μL of Bath1 Solution, maintaining 25 μL residual volume in each well.
4) Dispensed 25 μL per well of Hexyl Dye Solution into cell plates. Incubated for 20-35 minutes at room temp or ambient conditions.
5) Dispensed 80 μL per well of Bath1 into compound plates. Acid Yellow-17 (1 mM) was added and Potassium Chloride was altered from 4.5 to 20 mM depending on the NaV subtype and assay sensitivity.
6) Washed cell plates three times with 100 μL per well of Bath1, leaving 25 μL of residual volume. Then transferred 25 uL per well from Compound Plates to Cell Plates. Incubated for 20-35 minutes at room temp/ambient condition.
7) Read Plate on E-VIPR. Used the current-controlled amplifier to deliver stimulation wave pulses for 10 seconds and a scan rate of 200 Hz. A pre-stimulus recording was performed for 0.5 seconds to obtain the un-stimulated intensities baseline. The stimulatory waveform was followed by 0.5 seconds of post-stimulation recording to examine the relaxation to the resting state.
Data was analyzed and reported as normalized ratios of emission intensities measured in the 460 nm and 580 nm channels. The response as a function of time was reported as the ratios obtained using the following formula: […]
The data was further reduced by calculating the initial (Ri) and final (Rf) ratios. These were the average ratio values during part or all of the pre-stimulation period, and during sample points during the stimulation period. The response to the stimulus R=Rf/Ri was then calculated and reported as a function of time.
Control responses were obtained by performing assays in the presence of a compound with the desired properties (positive control), such as tetracaine, and in the absence of pharmacological agents (negative control). Responses to the negative (N) and positive (P) controls were calculated as above. The compound antagonist activity A is defined as:
[formula] where R is the ratio response of the test compound

Chain of human Nav1.8 (Q9Y5Y9 whole entry): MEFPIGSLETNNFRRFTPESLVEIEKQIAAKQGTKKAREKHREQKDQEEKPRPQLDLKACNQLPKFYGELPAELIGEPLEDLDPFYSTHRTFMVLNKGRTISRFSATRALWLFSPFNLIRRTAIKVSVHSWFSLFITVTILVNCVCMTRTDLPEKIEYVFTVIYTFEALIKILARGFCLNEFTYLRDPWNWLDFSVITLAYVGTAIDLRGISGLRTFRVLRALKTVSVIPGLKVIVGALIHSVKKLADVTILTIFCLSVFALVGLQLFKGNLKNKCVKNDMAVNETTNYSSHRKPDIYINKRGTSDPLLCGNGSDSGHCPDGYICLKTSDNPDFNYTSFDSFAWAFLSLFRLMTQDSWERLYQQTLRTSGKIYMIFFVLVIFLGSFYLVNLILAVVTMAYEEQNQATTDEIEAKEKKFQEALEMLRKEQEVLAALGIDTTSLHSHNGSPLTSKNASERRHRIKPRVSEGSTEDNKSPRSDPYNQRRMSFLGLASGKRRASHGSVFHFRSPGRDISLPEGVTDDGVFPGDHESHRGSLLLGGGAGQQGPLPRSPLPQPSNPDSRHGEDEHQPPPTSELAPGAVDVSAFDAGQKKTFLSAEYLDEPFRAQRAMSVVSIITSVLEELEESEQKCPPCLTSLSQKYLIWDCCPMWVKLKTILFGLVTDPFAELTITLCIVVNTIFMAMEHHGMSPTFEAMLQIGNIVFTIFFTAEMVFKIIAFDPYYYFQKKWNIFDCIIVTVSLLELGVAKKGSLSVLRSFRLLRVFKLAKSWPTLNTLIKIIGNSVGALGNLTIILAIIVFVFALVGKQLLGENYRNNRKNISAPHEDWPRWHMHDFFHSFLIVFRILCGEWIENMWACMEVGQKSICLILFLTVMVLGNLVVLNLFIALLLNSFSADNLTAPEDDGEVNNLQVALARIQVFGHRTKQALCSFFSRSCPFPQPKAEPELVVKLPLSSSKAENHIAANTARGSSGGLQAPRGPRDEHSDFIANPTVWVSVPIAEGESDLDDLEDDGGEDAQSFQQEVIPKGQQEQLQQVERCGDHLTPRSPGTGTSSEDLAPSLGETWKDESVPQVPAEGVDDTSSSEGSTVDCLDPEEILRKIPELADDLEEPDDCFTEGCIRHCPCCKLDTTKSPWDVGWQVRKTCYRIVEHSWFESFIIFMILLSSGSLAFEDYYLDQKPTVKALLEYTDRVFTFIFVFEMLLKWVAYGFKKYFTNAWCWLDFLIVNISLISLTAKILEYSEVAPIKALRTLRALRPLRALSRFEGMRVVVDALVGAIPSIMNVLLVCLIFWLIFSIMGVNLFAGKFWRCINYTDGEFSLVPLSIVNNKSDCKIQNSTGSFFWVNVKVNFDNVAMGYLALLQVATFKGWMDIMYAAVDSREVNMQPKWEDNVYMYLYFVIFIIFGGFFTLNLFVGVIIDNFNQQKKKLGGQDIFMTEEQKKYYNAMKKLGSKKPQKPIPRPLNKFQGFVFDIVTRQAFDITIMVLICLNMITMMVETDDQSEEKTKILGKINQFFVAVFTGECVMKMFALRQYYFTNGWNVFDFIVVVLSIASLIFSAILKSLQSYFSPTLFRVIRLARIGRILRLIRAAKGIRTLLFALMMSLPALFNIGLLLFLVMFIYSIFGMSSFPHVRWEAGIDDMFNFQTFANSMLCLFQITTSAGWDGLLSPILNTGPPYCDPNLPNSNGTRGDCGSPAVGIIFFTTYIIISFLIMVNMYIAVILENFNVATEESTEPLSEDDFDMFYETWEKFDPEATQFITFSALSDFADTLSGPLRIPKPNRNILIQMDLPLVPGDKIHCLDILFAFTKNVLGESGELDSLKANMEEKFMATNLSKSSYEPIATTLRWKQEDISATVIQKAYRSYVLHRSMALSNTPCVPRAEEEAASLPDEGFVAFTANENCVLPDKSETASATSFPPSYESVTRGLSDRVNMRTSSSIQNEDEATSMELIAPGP

One may read the IC50 as the concentration needed to halve the response being measured. The low end stands for greater potency, the high end for weaker potency. Regarding `NS(=O)(=O)c1cccc(NC(=O)c2nc3ccccc3nc2Oc2ccc(F)cc2)c1` [Compound 1, 3-(4-fluorophenoxy)-N-(3-sulfamoylphenyl)quinoxaline-2-carboxamide], the IC50 worked out at 27 nM. This counts as double-digit nanomolar.
Take `COc1cc(F)ccc1Oc1nc2ccccc2nc1C(=O)Nc1cccc(S(N)(=O)=O)c1` [Compound 2, 3-(4-fluoro-2-methoxyphenoxy)-N-(3-sulfamoylphenyl)quinoxaline-2-carboxamide]: the IC50 amounted to 6 nM.
The figure for `NS(=O)(=O)c1cccc(NC(=O)c2nc3ccccc3nc2Oc2ccc(OC(F)(F)F)cc2)c1` [Compound 3, N-(3-sulfamoylphenyl)-3-(4-(trifluoromethoxy)phenoxy)quinoxaline-2-carboxamide] is 14 nM; for `COc1ccc(Oc2nc3ccccc3nc2C(=O)Nc2cccc(S(N)(=O)=O)c2)c(Cl)c1` [Compound 4, 3-(2-chloro-4-methoxyphenoxy)-N-(3-sulfamoylphenyl)quinoxaline-2-carboxamide] it is 4 nM; for `NS(=O)(=O)c1cccc(NC(=O)c2nc3ccccc3nc2Oc2ccc(F)cc2F)c1` [Compound 5, 3-(2,4-difluorophenoxy)-N-(3-sulfamoylphenyl)quinoxaline-2-carboxamide] it is 13 nM.
As to `NS(=O)(=O)c1cccc(NC(=O)c2nc3ccccc3nc2Oc2ccc(F)cc2Cl)c1` [Compound 6, 3-(2-chloro-4-fluorophenoxy)-N-(3-sulfamoylphenyl)quinoxaline-2-carboxamide], the IC50 is 3 nM.
The figure for `COc1ccc(Oc2nc3ccccc3nc2C(=O)Nc2cccc(S(N)(=O)=O)c2)cc1F` [Compound 7, 3-(3-fluoro-4-methoxyphenoxy)-N-(3-sulfamoylphenyl)quinoxaline-2-carboxamide] is 42 nM.
The figure for `COc1ccc(Oc2nc3ccccc3nc2C(=O)Nc2cccc(S(N)(=O)=O)c2)c(OC)c1` [Compound 8, 3-(2,4-dimethoxyphenoxy)-N-(3-sulfamoylphenyl)quinoxaline-2-carboxamide] is 6 nM.
Under `Cc1cc(Cl)ccc1Oc1nc2ccccc2nc1C(=O)Nc1cccc(S(N)(=O)=O)c1` [Compound 9, 3-(4-chloro-2-methylphenoxy)-N-(3-sulfamoylphenyl)quinoxaline-2-carboxamide] stands 14 nM.
With `NS(=O)(=O)c1cccc(NC(=O)c2nc3ccccc3nc2Oc2ccccc2OC(F)F)c1` [Compound 10, 3-(2-(difluoromethoxy)phenoxy)-N-(3-sulfamoylphenyl)quinoxaline-2-carboxamide], the IC50 is 36 nM.
The figure for `COc1cc(Cl)ccc1Oc1nc2ccccc2nc1C(=O)Nc1cccc(S(N)(=O)=O)c1` [Compound 11, 3-(4-chloro-2-methoxyphenoxy)-N-(3-sulfamoylphenyl)quinoxaline-2-carboxamide] is 5 nM.
Under `COc1ccc(Oc2nc3ccccc3nc2C(=O)Nc2cccc(S(N)(=O)=O)c2)c(F)c1` [Compound 12, 3-(2-fluoro-4-methoxyphenoxy)-N-(3-sulfamoylphenyl)quinoxaline-2-carboxamide] stands 22 nM; under `NS(=O)(=O)c1cccc(NC(=O)c2nc3ccccc3nc2Oc2ccccc2)c1` [Compound 13, 3-phenoxy-N-(3-sulfamoylphenyl)quinoxaline-2-carboxamide], 92 nM; under `Cc1cc(F)ccc1Oc1nc2ccccc2nc1C(=O)Nc1cccc(S(N)(=O)=O)c1` [Compound 14, 3-(4-fluoro-2-methylphenoxy)-N-(3-sulfamoylphenyl)quinoxaline-2-carboxamide], 7 nM.
The figure for `NS(=O)(=O)c1cccc(NC(=O)c2nc3ccccc3nc2Oc2ccc(OCC(F)(F)F)cc2)c1` [Compound 15, N-(3-sulfamoylphenyl)-3-(4-(2,2,2-trifluoroethoxy)phenoxy)quinoxaline-2-carboxamide] is 66 nM; for `CNS(=O)(=O)c1cccc(NC(=O)c2nc3ccccc3nc2Oc2ccc(F)cc2OC)c1` [Compound 16, 3-(4-fluoro-2-methoxyphenoxy)-N-(3-(N-methylsulfamoyl)phenyl)quinoxaline-2-carboxamide] it is 22 nM.
For `O=C(O)c1ccc(NC(=O)c2nc3ccccc3nc2Oc2ccc(OC(F)(F)F)cc2)cc1` [Compound 17, 4-(3-(4-(trifluoromethoxy)phenoxy)quinoxaline-2-carboxamido)benzoic acid], the IC50 was determined as 44 nM.
The figure for `O=C(O)c1ccc(NC(=O)c2nc3ccccc3nc2Oc2ccc(F)cc2)cn1` [Compound 18, 5-(3-(4-fluorophenoxy)quinoxaline-2-carboxamido)picolinic acid] is 250 nM; for `Cc1cc(F)ccc1Oc1nc2ccccc2nc1C(=O)Nc1ccc(C(=O)O)nc1` [Compound 19, 5-(3-(4-fluoro-2-methylphenoxy)quinoxaline-2-carboxamido)picolinic acid] it is 86 nM; for `O=C(O)c1ccc(NC(=O)c2nc3ccccc3nc2Oc2ccccc2)cn1` [Compound 20, 5-(3-phenoxyquinoxaline-2-carboxamido)picolinic acid] it is 1080 nM.
Take `COc1ccc(Oc2nc3ccccc3nc2C(=O)Nc2ccc(C(=O)O)nc2)c(F)c1` [Compound 21, 5-(3-(2-fluoro-4-methoxyphenoxy)quinoxaline-2-carboxamido)picolinic acid]: the IC50 was determined as 235 nM.
On to `O=C(O)c1ccc(NC(=O)c2nc3ccccc3nc2Oc2ccc(OCC(F)(F)F)cc2)cn1` [Compound 22, 5-(3-(4-(2,2,2-trifluoroethoxy)phenoxy)quinoxaline-2-carboxamido)picolinic acid], for which inhibition was half-maximal at 180 nM (IC50).
Under `COc1cc(Cl)ccc1Oc1nc2ccccc2nc1C(=O)Nc1ccc(C(=O)O)nc1` [Compound 23, 5-(3-(4-chloro-2-methoxyphenoxy)quinoxaline-2-carboxamido)picolinic acid] stands 19 nM; under `O=C(O)c1ccc(NC(=O)c2nc3ccccc3nc2Oc2ccccc2OC(F)F)cn1` [Compound 24, 5-(3-(2-(difluoromethoxy)phenoxy)quinoxaline-2-carboxamido)picolinic acid], 340 nM.
The figure for `Cc1cc(Cl)ccc1Oc1nc2ccccc2nc1C(=O)Nc1ccc(C(=O)O)nc1` [Compound 25, 5-(3-(4-chloro-2-methylphenoxy)quinoxaline-2-carboxamido)picolinic acid] is 56 nM; for `COc1ccc(Oc2nc3ccccc3nc2C(=O)Nc2ccc(C(=O)O)nc2)c(OC)c1` [Compound 26, 5-(3-(2,4-dimethoxyphenoxy)quinoxaline-2-carboxamido)picolinic acid] it is 46 nM.
For the molecule `COc1ccc(Oc2nc3ccccc3nc2C(=O)Nc2ccc(C(=O)O)nc2)cc1F` [Compound 27, 5-(3-(3-fluoro-4-methoxyphenoxy)quinoxaline-2-carboxamido)picolinic acid], the IC50 stood at 185 nM.
The figure for `O=C(O)c1ccc(NC(=O)c2nc3ccccc3nc2Oc2ccc(F)cc2Cl)cn1` [Compound 28, 5-(3-(2-chloro-4-fluorophenoxy)quinoxaline-2-carboxamido)picolinic acid] is 51 nM.
`O=C(O)c1ccc(NC(=O)c2nc3ccccc3nc2Oc2ccc(F)cc2F)cn1` [Compound 29, 5-(3-(2,4-difluorophenoxy)quinoxaline-2-carboxamido)picolinic acid] returned an IC50 of 185 nM.
